# Assay results published in US20030108951A1, “Use of diseases-associated gene” (priority 2000, published 2003).
# What was measured:
# CARP gene [1] = assay: CARP gene expression in primary neonatal rat cardiomyocytes, TaqMan quantification; format: cell-based; conditions: serum-removed medium, added to 10 nM, 100 nM or 1000 nM, at maximum
# CARP gene [2] = assay: CARP gene expression in H9c2 cells, TaqMan PCR; format: cell-based, rat; conditions: serum-free DMEM, 10 nM or 100 nM, 4 hours and 8 hours, at maximum
# Method: H9c2 cell is a cell line derived from rat cardiomyocytes and was purchased from ATCC. The cells were incubated in DMEM medium supplemented with 10% calf serum. After recovery of cells using trypsin, the cells were inoculated on a 12-well plate in 100000 cells/well, followed by incubation in a 10% calf serum-containing DMEM medium for 12 hours. Thereafter, the medium was exchanged with a fresh serum-free DMEM medium, to which norepinephrine was supplemented in 10 nM or 100 nM, and the CARP gene expression level was quantitatively determined by TaqMan PCR with passage of 4 hours and 8 hours. Also, the copy number of […] gene (G3PDH) was quantitatively determined in a similar manner, and the copy number of CARP gene calculated was corrected by G3PDH. […] According to this system, the CARP gene expression can be quantitatively determined in response to various hypertrophic stimuli or in the apoptosis induction stage, and thus the system can be used for screening a CARP gene expression regulator. Moreover, by performing reporter gene assay using a promoter of the CARP gene, a low variation rate can be changed to a high variation rate to achieve high sensitization, thus enabling to high throughput screening.
Compound,increase of expression of the CARP gene (CARP gene [1]),increase of expression level of CARP gene (corrected by G3PDH) (CARP gene [2]) [fold]
NC[C@H](O)c1ccc(O)c(O)c1 [norepinephrine],about 3 times,~2
CC[C@H](C)[C@H](NC(=O)[C@H](CC(=O)O)NC(=O)[C@H](CC(C)C)NC(=O)[C@H](Cc1c[nH]cn1)NC(=O)[C@@H]1CSSC[C@H](N)C(=O)N[C@@H](CO)C(=O)N[C@H]2CSSC[C@H](NC(=O)[C@H](CCC(=O)O)NC(=O)[C@H](CCCCN)NC(=O)[C@H](CC(=O)O)NC(=O)[C@H](CCSC)NC(=O)[C@H](CC(C)C)NC(=O)[C@H](CO)NC(=O)[C@H](CO)NC2=O)C(=O)N[C@@H](C(C)C)C(=O)N[C@@H](Cc2ccc(O)cc2)C(=O)N[C@@H](Cc2ccccc2)C(=O)N1)C(=O)N[C@H](C(=O)N[C@@H](Cc1c[nH]c2ccccc12)C(=O)O)[C@@H](C)CC [endothelin],about 3 times,
